Data published in the NIST ThermoML archive (doi:10.1021/acs.jced.8b00132).
Several values for one entry are separate records, joined by “and”; a condition that tells them apart may be missing. Equal entries are not always repeated.

Settings: Gas

O=C(C(F)(F)C(F)(F)F)C(F)(C(F)(F)F)C(F)(F)F [dodecafluoro-2-methylpentan-3-one]
Settings | thermal conductivity
473.39 K, 1887 kPa, transient hot wire | 0.02688 W/m/K
473.39 K, 22521 kPa, transient hot wire | 0.05152 W/m/K
473.39 K, 49215 kPa, transient hot wire | 0.06271 W/m/K
473.39 K, 49255 kPa, transient hot wire | 0.06285 W/m/K
473.4 K, 22522 kPa, transient hot wire | 0.05154 W/m/K
473.4 K, 33946 kPa, transient hot wire | 0.05711 W/m/K
473.42 K, 7819 kPa, transient hot wire | 0.04151 W/m/K
473.44 K, 47 kPa, hot wire | 0.02441 W/m/K
473.44 K, 201 kPa, hot wire | 0.0244 W/m/K
473.44 K, 7822 kPa, transient hot wire | 0.0416 W/m/K
473.44 K, 49246 kPa, transient hot wire | 0.06304 W/m/K
473.45 K, 47 kPa, hot wire | 0.02432 W/m/K
473.45 K, 606 kPa, hot wire | 0.02611 W/m/K
473.45 K, 49207 kPa, transient hot wire | 0.06277 W/m/K
473.45 K, 49209 kPa, transient hot wire | 0.06279 W/m/K
473.45 K, 49249 kPa, transient hot wire | 0.06286 W/m/K
473.46 K, 202 kPa, hot wire | 0.02416 W/m/K
473.46 K, 606 kPa, hot wire | 0.02602 W/m/K
473.46 K, 1913 kPa, transient hot wire | 0.0269 W/m/K
473.46 K, 10825 kPa, transient hot wire | 0.04418 W/m/K
473.46 K, 10827 kPa, transient hot wire | 0.04414 W/m/K
473.47 K, 33946 kPa, transient hot wire | 0.05693 W/m/K
473.48 K, 419 kPa, hot wire | 0.02531 W/m/K
473.48 K, 1914 kPa, transient hot wire | 0.027 W/m/K
473.48 K, 22521 kPa, transient hot wire | 0.05152 W/m/K
473.48 K, 33946 kPa, transient hot wire | 0.05688 W/m/K
473.49 K, 418 kPa, hot wire | 0.02526 W/m/K
473.49 K, 1887 kPa, transient hot wire | 0.027 W/m/K
473.49 K, 15492 kPa, transient hot wire | 0.04746 W/m/K
473.49 K, 49134 kPa, transient hot wire | 0.06279 W/m/K
473.5 K, 1887 kPa, transient hot wire | 0.02709 W/m/K
473.51 K, 1475 kPa, transient hot wire | 0.02577 W/m/K
473.51 K, 49242 kPa, transient hot wire | 0.0628 W/m/K
473.52 K, 1475 kPa, transient hot wire | 0.02566 W/m/K
473.52 K, 7821 kPa, transient hot wire | 0.04156 W/m/K
473.52 K, 7822 kPa, transient hot wire | 0.04146 W/m/K
473.53 K, 10824 kPa, transient hot wire | 0.04374 W/m/K
473.53 K, 49248 kPa, transient hot wire | 0.06293 W/m/K
473.54 K, 46 kPa, hot wire | 0.0245 W/m/K
473.54 K, 201 kPa, hot wire | 0.02457 W/m/K
473.55 K, 201 kPa, hot wire | 0.02434 W/m/K
473.55 K, 839 kPa, transient hot wire | 0.02508 W/m/K
473.55 K, 10823 kPa, transient hot wire | 0.0442 W/m/K
473.55 K, 22519 kPa, transient hot wire | 0.05152 W/m/K
473.55 K, 33944 kPa, transient hot wire | 0.05699 W/m/K
473.55 K, 33949 kPa, transient hot wire | 0.05683 W/m/K
473.56 K, 46 kPa, hot wire | 0.02434 W/m/K
473.56 K, 22522 kPa, transient hot wire | 0.05162 W/m/K
473.57 K, 840 kPa, transient hot wire | 0.02498 W/m/K
473.58 K, 1912 kPa, transient hot wire | 0.02703 W/m/K and 0.02697 W/m/K
473.58 K, 15493 kPa, transient hot wire | 0.04744 W/m/K
473.6 K, 604 kPa, transient hot wire | 0.02513 W/m/K
473.6 K, 15489 kPa, transient hot wire | 0.04749 W/m/K
473.61 K, 605 kPa, transient hot wire | 0.02525 W/m/K
473.62 K, 33950 kPa, transient hot wire | 0.05685 W/m/K
473.63 K, 10824 kPa, transient hot wire | 0.04429 W/m/K
473.64 K, 10823 kPa, transient hot wire | 0.04414 W/m/K
473.65 K, 1476 kPa, transient hot wire | 0.02571 W/m/K
473.66 K, 1476 kPa, transient hot wire | 0.02567 W/m/K
473.67 K, 429 kPa, transient hot wire | 0.02546 W/m/K
473.67 K, 15488 kPa, transient hot wire | 0.04746 W/m/K
473.67 K, 22520 kPa, transient hot wire | 0.05153 W/m/K
473.68 K, 430 kPa, transient hot wire | 0.02555 W/m/K
473.71 K, 842 kPa, transient hot wire | 0.02515 W/m/K
473.71 K, 1912 kPa, transient hot wire | 0.02721 W/m/K
473.71 K, 1913 kPa, transient hot wire | 0.02727 W/m/K
473.71 K, 10824 kPa, transient hot wire | 0.04392 W/m/K
473.72 K, 841 kPa, transient hot wire | 0.02507 W/m/K
473.74 K, 10822 kPa, transient hot wire | 0.04424 W/m/K
473.75 K, 22523 kPa, transient hot wire | 0.05151 W/m/K and 0.05152 W/m/K
473.77 K, 607 kPa, transient hot wire | 0.02516 W/m/K and 0.02531 W/m/K
473.77 K, 15488 kPa, transient hot wire | 0.04755 W/m/K
473.78 K, 1476 kPa, transient hot wire | 0.02572 W/m/K
473.78 K, 15486 kPa, transient hot wire | 0.04744 W/m/K
473.79 K, 1476 kPa, transient hot wire | 0.02574 W/m/K
473.81 K, 1914 kPa, transient hot wire | 0.02747 W/m/K
473.81 K, 10823 kPa, transient hot wire | 0.0442 W/m/K and 0.04427 W/m/K
473.82 K, 427 kPa, transient hot wire | 0.02562 W/m/K
473.82 K, 428 kPa, transient hot wire | 0.02569 W/m/K
473.82 K, 1914 kPa, transient hot wire | 0.0274 W/m/K
473.85 K, 15487 kPa, transient hot wire | 0.04761 W/m/K
473.87 K, 15485 kPa, transient hot wire | 0.04754 W/m/K
473.88 K, 841 kPa, transient hot wire | 0.02504 W/m/K
473.89 K, 841 kPa, transient hot wire | 0.02504 W/m/K
473.94 K, 607 kPa, transient hot wire | 0.02517 W/m/K
473.94 K, 608 kPa, transient hot wire | 0.02532 W/m/K
473.94 K, 1476 kPa, transient hot wire | 0.02574 W/m/K
473.96 K, 1476 kPa, transient hot wire | 0.02582 W/m/K
473.98 K, 426 kPa, transient hot wire | 0.02562 W/m/K
473.99 K, 423 kPa, transient hot wire | 0.02558 W/m/K
474.04 K, 842 kPa, transient hot wire | 0.02513 W/m/K and 0.02512 W/m/K
474.09 K, 607 kPa, transient hot wire | 0.02539 W/m/K and 0.02526 W/m/K
474.16 K, 420 kPa, transient hot wire | 0.02565 W/m/K
474.16 K, 421 kPa, transient hot wire | 0.02567 W/m/K
474.19 K, 842 kPa, transient hot wire | 0.02519 W/m/K
474.2 K, 841 kPa, transient hot wire | 0.0252 W/m/K
474.27 K, 606 kPa, transient hot wire | 0.02536 W/m/K
474.28 K, 606 kPa, transient hot wire | 0.02535 W/m/K
474.31 K, 419 kPa, transient hot wire | 0.02566 W/m/K
474.32 K, 419 kPa, transient hot wire | 0.0257 W/m/K
499.37 K, 646 kPa, hot wire | 0.02778 W/m/K
499.37 K, 647 kPa, hot wire | 0.02768 W/m/K
499.4 K, 421 kPa, hot wire | 0.02708 W/m/K
499.41 K, 221 kPa, hot wire | 0.02654 W/m/K
499.41 K, 422 kPa, hot wire | 0.0269 W/m/K
499.42 K, 220 kPa, hot wire | 0.02629 W/m/K
499.45 K, 60 kPa, hot wire | 0.02624 W/m/K
499.45 K, 645 kPa, hot wire | 0.02749 W/m/K and 0.02782 W/m/K
499.47 K, 60 kPa, hot wire | 0.02576 W/m/K
499.49 K, 419 kPa, hot wire | 0.0267 W/m/K
499.5 K, 419 kPa, hot wire | 0.02667 W/m/K
499.5 K, 50295 kPa, transient hot wire | 0.06261 W/m/K
499.51 K, 219 kPa, hot wire | 0.02641 W/m/K
499.51 K, 220 kPa, hot wire | 0.02635 W/m/K
499.52 K, 4853 kPa, transient hot wire | 0.03589 W/m/K and 0.03595 W/m/K
499.52 K, 50304 kPa, transient hot wire | 0.06215 W/m/K
499.53 K, 644 kPa, hot wire | 0.02758 W/m/K
499.53 K, 2128 kPa, transient hot wire | 0.02828 W/m/K
499.54 K, 61 kPa, hot wire | 0.02593 W/m/K
499.55 K, 61 kPa, hot wire | 0.02598 W/m/K
499.55 K, 644 kPa, hot wire | 0.02734 W/m/K
499.56 K, 419 kPa, hot wire | 0.02715 W/m/K
499.56 K, 50302 kPa, transient hot wire | 0.06239 W/m/K
499.57 K, 419 kPa, hot wire | 0.02691 W/m/K
499.57 K, 4325 kPa, transient hot wire | 0.0351 W/m/K
499.57 K, 50305 kPa, transient hot wire | 0.06236 W/m/K
499.58 K, 3937 kPa, transient hot wire | 0.03408 W/m/K
499.58 K, 4853 kPa, transient hot wire | 0.03611 W/m/K
499.59 K, 50256 kPa, transient hot wire | 0.06271 W/m/K
499.59 K, 50258 kPa, transient hot wire | 0.06238 W/m/K
499.6 K, 218 kPa, hot wire | 0.02625 W/m/K
499.6 K, 219 kPa, hot wire | 0.0263 W/m/K
499.6 K, 3614 kPa, transient hot wire | 0.03311 W/m/K
499.6 K, 4853 kPa, transient hot wire | 0.036 W/m/K
499.61 K, 35693 kPa, transient hot wire | 0.05695 W/m/K
499.61 K, 50280 kPa, transient hot wire | 0.06265 W/m/K
499.62 K, 61 kPa, hot wire | 0.02606 W/m/K and 0.02605 W/m/K
499.62 K, 5588 kPa, transient hot wire | 0.03699 W/m/K
499.62 K, 35669 kPa, transient hot wire | 0.057 W/m/K
499.62 K, 35696 kPa, transient hot wire | 0.05672 W/m/K
499.63 K, 643 kPa, hot wire | 0.02745 W/m/K
499.63 K, 3615 kPa, transient hot wire | 0.03333 W/m/K
499.63 K, 4324 kPa, transient hot wire | 0.03525 W/m/K
499.63 K, 5589 kPa, transient hot wire | 0.03717 W/m/K
499.63 K, 35672 kPa, transient hot wire | 0.05682 W/m/K
499.63 K, 50307 kPa, transient hot wire | 0.06251 W/m/K
499.64 K, 644 kPa, hot wire | 0.02725 W/m/K
499.64 K, 1595 kPa, transient hot wire | 0.0274 W/m/K
499.64 K, 3289 kPa, transient hot wire | 0.03215 W/m/K
499.64 K, 4325 kPa, transient hot wire | 0.03518 W/m/K
499.64 K, 50259 kPa, transient hot wire | 0.06245 W/m/K
499.65 K, 419 kPa, hot wire | 0.02725 W/m/K
499.65 K, 1595 kPa, transient hot wire | 0.02712 W/m/K
499.65 K, 2128 kPa, transient hot wire | 0.02826 W/m/K and 0.0282 W/m/K
499.65 K, 4853 kPa, transient hot wire | 0.03633 W/m/K
499.65 K, 4854 kPa, transient hot wire | 0.03629 W/m/K
499.66 K, 418 kPa, hot wire | 0.02719 W/m/K
499.66 K, 3937 kPa, transient hot wire | 0.03435 W/m/K and 0.03413 W/m/K
499.67 K, 2953 kPa, transient hot wire | 0.0308 W/m/K
499.67 K, 35694 kPa, transient hot wire | 0.05685 W/m/K
499.68 K, 50260 kPa, transient hot wire | 0.06229 W/m/K
499.69 K, 218 kPa, hot wire | 0.02623 W/m/K and 0.0264 W/m/K
499.69 K, 5590 kPa, transient hot wire | 0.03719 W/m/K
499.69 K, 35675 kPa, transient hot wire | 0.05669 W/m/K
499.69 K, 35681 kPa, transient hot wire | 0.05715 W/m/K
499.69 K, 50252 kPa, transient hot wire | 0.06264 W/m/K
499.7 K, 60 kPa, hot wire | 0.02639 W/m/K and 0.0261 W/m/K
499.7 K, 2953 kPa, transient hot wire | 0.03112 W/m/K
